Measured values as given in patent US20230085307A1, “PYRIDAZINONE COMPOUND AND HERBICIDE” (NISSAN CHEMICAL CORPORATION, priority 2019, published 2023).

Assays:
Japanese bulrush = experiment: Test Example 1: herbicidal activity, application before weed generation under submerged conditions (Table 16, symbol B); assay type: in vivo, Japanese bulrush (Schoenoplectus juncoides); conditions: 320 g/ha applied herbicide
Procedure, shortened: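 Emulsion formulation, water-diluted to set dose, was put onto the flooded surface (4 cm depth, alluvial soil) the same day weeds were sown and 2.5-leaf rice transplanted. After 3 weeks at 25-30 °C under glass, each species was rated 0 (≤5% kill) to 5 (≥90% kill).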

late watergrass = experiment: Test Example 2: herbicidal activity, application during weed generation under submerged conditions (Table 17, symbol A); assay type: in vivo, late watergrass (Echinochloa oryzicola); conditions: AAH 320 g/ha; application during weed generation, submerged conditions
Procedure, shortened: (§1)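 Steps: fill Wagner pots with alluvial soil; add water to give 4 cm depth; sow the species mixed; grow under glass at 25–30° C.; at 1–2 leaves apply water-diluted emulsion formulation to the water surface at a fixed herbicide amount; score after 3 weeks.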

oval-leafed pondweed = experiment: Test Example 2: herbicidal activity, application during weed generation under submerged conditions (Table 17, symbol C); assay type: in vivo, oval-leafed pondweed (Monochoria vaginalis); conditions: AAH 320 g/ha; application during weed generation, submerged conditions
Procedure, shortened: as §1

Chinese sprangletop = experiment: Test Example 3: herbicidal effect by foliage application, Wagner pot (Table 18, symbol D); assay type: in vivo, chinese sprangletop (Leptochloa chinensis); conditions: for herbicidal effect on D (Chinese sprangletop), rating 0-5: 320 g/ha
Procedure, shortened: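 Plants were sown in alluvial soil held under 0.1–0.5 cm standing water and grown 14 days in a greenhouse at 25–30 °C. An emulsifiable formulation, water-diluted to the set dose, was then sprayed onto the foliage, and effects were scored three weeks later using previously defined criteria.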

southern crabgrass = experiment: Test Example 4: herbicidal effect by soil treatment (Table 19, symbol F); assay type: in vivo, southern crabgrass (Digitaria ciliaris)
Procedure, shortened: (§2)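 Pre-emergence style soil spray: seeds under ~1.5 cm sterilized diluvial soil received a uniform coat of emulsion diluted to the predetermined herbicide amount. Greenhouse 25–30° C; readout at week three on previously defined criteria.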

wild oat [1] = experiment: Test Example 4: herbicidal effect by soil treatment (Table 19, symbol I); assay type: in vivo, wild oat (Avena fatua)
Procedure, shortened: as §2

blackgrass = experiment: Test Example 4: herbicidal effect by soil treatment (Table 19, symbol J); assay type: in vivo, blackgrass (Alopecurus myosuroides)
Procedure, shortened: as §2

Italian ryegrass = experiment: Test Example 4: herbicidal effect by soil treatment (Table 19, symbol K); assay type: in vivo, Italian ryegrass (Lolium multiflorum)
Procedure, shortened: as §2

windgrass [2] = experiment: Test Example 4: herbicidal effect by soil treatment (Table 19, symbol L); assay type: in vivo, windgrass (Apera spica-venti)
Procedure, shortened: as §2

lambsquarters [3] = experiment: Test Example 4: herbicidal effect by soil treatment (Table 19, symbol O); assay type: in vivo, lambsquarters (Chenopodium album)
Procedure, shortened: as §2

persian speedwell [4] = experiment: Test Example 4: herbicidal effect by soil treatment (Table 19, symbol R); assay type: in vivo, Persian speedwell (Veronica persica)
Procedure, shortened: as §2

barnyard grass = experiment: Test Example 5: herbicidal effect by foliage application, plastic box (Table 20, symbol H); assay type: in vivo, barnyard grass (Echinochloa crus-galli); conditions: foliage application, 320 g/ha; for effect on barnyard grass (H): 3 weeks after application
Procedure, shortened: (§3)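 Plants were sown into sterilized diluvial soil under about 1.5 cm cover and kept in a greenhouse at 25° C. to 30° C. Fourteen days on, foliage received an even spray of the diluted emulsion. Herbicidal or crop effect was judged three weeks afterwards.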

wild oat [5] = experiment: Test Example 5: herbicidal effect by foliage application, plastic box (Table 20, symbol I); assay type: in vivo, wild oat (Avena fatua); conditions: foliage application, 320 g/ha; for effect on wild oat (I): 3 weeks after application
Procedure, shortened: as §3

windgrass [6] = experiment: Test Example 5: herbicidal effect by foliage application, plastic box (Table 20, symbol L); assay type: in vivo, windgrass (Apera spica-venti); conditions: foliage application, 320 g/ha; for effect on windgrass (L): 3 weeks after application
Procedure, shortened: as §3

velvetleaf = experiment: Test Example 5: herbicidal effect by foliage application, plastic box (Table 20, symbol M); assay type: in vivo, velvetleaf (Abutilon theophrasti); conditions: foliage application, 320 g/ha; for effect on velvetleaf (M): 3 weeks after application
Procedure, shortened: as §3

lambsquarters [7] = experiment: Test Example 5: herbicidal effect by foliage application, plastic box (Table 20, symbol O); assay type: in vivo, lambsquarters (Chenopodium album); conditions: foliage application, 320 g/ha; for effect on lambsquarters (O): 3 weeks after application
Procedure, shortened: as §3

persian speedwell [8] = experiment: Test Example 5: herbicidal effect by foliage application, plastic box (Table 20, symbol R); assay type: in vivo, Persian speedwell (Veronica persica); conditions: foliage application, 320 g/ha; for effect on persian speedwell (R): 3 weeks after application
Procedure, shortened: as §3

[9] = amount of applied herbicide 320 g/ha
[10] = evaluated three weeks after application

CCCCOc1ccc(-c2sc3ccccc3c2-c2c(O)c(C)nn(C)c2=O)cc1 [1-024]
Herbicidal effect on B: Japanese bulrush (grade 0-5) (Japanese bulrush): 5 (Herbicidal rate of 90% or more (almost completely withered)) | herbicidal effect rating, A: late watergrass (late watergrass): 4 (Herbicidal rate of 70% or more and less than 90%) | herbicidal effect rating, C: oval-leafed pondweed (oval-leafed pondweed): 5 (Herbicidal rate of 90% or more (almost completely withered)) | herbicidal effect on D (Chinese sprangletop), rating 0-5 (Chinese sprangletop): 4 (Herbicidal rate of 70% or more and less than 90%) | herbicidal effect rating, F: southern crabgrass (southern crabgrass; [9]): 0 (Herbicidal rate of 5% or less (almost no effect)) | herbicidal effect rating, I: wild oat (wild oat [1]; [9]): 0 (Herbicidal rate of 5% or less (almost no effect)) | herbicidal effect rating, J: blackgrass (blackgrass; [9]): 0 (Herbicidal rate of 5% or less (almost no effect)) | herbicidal effect rating, K: Italian ryegrass (Italian ryegrass; [9]): 0 (Herbicidal rate of 5% or less (almost no effect)) | herbicidal effect rating, L: windgrass (windgrass [2]; [9]): 0 (Herbicidal rate of 5% or less (almost no effect)) | herbicidal effect rating, O: lambsquarters (lambsquarters [3]; [9]): 5 (Herbicidal rate of 90% or more (almost completely withered)) | herbicidal effect rating, R: persian speedwell (persian speedwell [4]; [9]): 4 (Herbicidal rate of 70% or more and less than 90%) | herbicidal effect grade, H: barnyard grass (barnyard grass; three weeks after application): 5 (Herbicidal rate of 90% or more (almost completely withered)) | herbicidal effect grade, I: wild oat (wild oat [5]; three weeks after application): 4 (Herbicidal rate of 70% or more and less than 90%) | herbicidal effect grade, L: windgrass (windgrass [6]; three weeks after application): 4 (Herbicidal rate of 70% or more and less than 90%) | herbicidal effect grade, M: velvetleaf (velvetleaf; three weeks after application): 5 (Herbicidal rate of 90% or more (almost completely withered)) | herbicidal effect grade, O: lambsquarters (lambsquarters [7]; three weeks after application): 5 (Herbicidal rate of 90% or more (almost completely withered)) | herbicidal effect grade, R: persian speedwell (persian speedwell [8]; three weeks after application): 5 (Herbicidal rate of 90% or more (almost completely withered))

CCCC(=O)Oc1c(C)nn(C)c(=O)c1-c1c(-c2ccccc2OC(F)(F)F)sc2ccc(F)cc12 [2-044]
Herbicidal effect on B: Japanese bulrush (grade 0-5) (Japanese bulrush): 0 (Herbicidal rate of 5% or less (almost no effect)) | herbicidal effect rating, A: late watergrass (late watergrass): 2 (Herbicidal rate of 20% or more and less than 40%) | herbicidal effect rating, C: oval-leafed pondweed (oval-leafed pondweed): 3 (Herbicidal rate of 40% or more and less than 70%) | herbicidal effect on D (Chinese sprangletop), rating 0-5 (Chinese sprangletop): 2 (Herbicidal rate of 20% or more and less than 40%) | herbicidal effect rating, F: southern crabgrass (southern crabgrass; 320 g/ha): 3 (Herbicidal rate of 40% or more and less than 70%) | herbicidal effect rating, I: wild oat (wild oat [1]; 320 g/ha): 2 (Herbicidal rate of 20% or more and less than 40%) | herbicidal effect rating, J: blackgrass (blackgrass; 320 g/ha): 0 (Herbicidal rate of 5% or less (almost no effect)) | herbicidal effect rating, K: Italian ryegrass (Italian ryegrass; 320 g/ha): 0 (Herbicidal rate of 5% or less (almost no effect)) | herbicidal effect rating, L: windgrass (windgrass [2]; 320 g/ha): 0 (Herbicidal rate of 5% or less (almost no effect)) | herbicidal effect rating, O: lambsquarters (lambsquarters [3]; 320 g/ha): 5 (Herbicidal rate of 90% or more (almost completely withered)) | herbicidal effect rating, R: persian speedwell (persian speedwell [4]; 320 g/ha): 4 (Herbicidal rate of 70% or more and less than 90%) | effect on barnyard grass (H) (barnyard grass): 0 (Herbicidal rate of 5% or less (almost no effect)) | effect on wild oat (I) (wild oat [5]): 3 (Herbicidal rate of 40% or more and less than 70%) | effect on windgrass (L) (windgrass [6]): 4 (Herbicidal rate of 70% or more and less than 90%) | effect on velvetleaf (M) (velvetleaf): 5 (Herbicidal rate of 90% or more (almost completely withered)) | effect on lambsquarters (O) (lambsquarters [7]): 1 (Herbicidal rate of 5% or more and less than 20%) | effect on persian speedwell (R) (persian speedwell [8]): 5 (Herbicidal rate of 90% or more (almost completely withered))

Cc1nn(C)c(=O)c(-c2c(-c3ccc(OCC(F)F)cc3)sc3ccccc23)c1O [1-203]
Herbicidal effect on B: Japanese bulrush (grade 0-5) (Japanese bulrush): 5 (Herbicidal rate of 90% or more (almost completely withered)) | herbicidal effect rating, A: late watergrass (late watergrass): 4 (Herbicidal rate of 70% or more and less than 90%) | herbicidal effect rating, C: oval-leafed pondweed (oval-leafed pondweed): 4 (Herbicidal rate of 70% or more and less than 90%) | herbicidal effect on D (Chinese sprangletop), rating 0-5 (Chinese sprangletop): 4 (Herbicidal rate of 70% or more and less than 90%) | F: southern crabgrass, herbicidal effect rating (southern crabgrass; AAH 320 g/ha): 4 (Herbicidal rate of 70% or more and less than 90%) | I: wild oat, herbicidal effect rating (wild oat [1]; AAH 320 g/ha): 1 (Herbicidal rate of 5% or more and less than 20%) | J: blackgrass, herbicidal effect rating (blackgrass; AAH 320 g/ha): 3 (Herbicidal rate of 40% or more and less than 70%) | K: Italian ryegrass, herbicidal effect rating (Italian ryegrass; AAH 320 g/ha): 5 (Herbicidal rate of 90% or more (almost completely withered)) | L: windgrass, herbicidal effect rating (windgrass [2]; AAH 320 g/ha): 0 (Herbicidal rate of 5% or less (almost no effect)) | O: lambsquarters, herbicidal effect rating (lambsquarters [3]; AAH 320 g/ha): 5 (Herbicidal rate of 90% or more (almost completely withered)) | R: persian speedwell, herbicidal effect rating (persian speedwell [4]; AAH 320 g/ha): 5 (Herbicidal rate of 90% or more (almost completely withered)) | effect on barnyard grass (H) (barnyard grass): 5 (Herbicidal rate of 90% or more (almost completely withered)) | effect on wild oat (I) (wild oat [5]): 0 (Herbicidal rate of 5% or less (almost no effect)) | effect on windgrass (L) (windgrass [6]): 4 (Herbicidal rate of 70% or more and less than 90%) | effect on velvetleaf (M) (velvetleaf): 5 (Herbicidal rate of 90% or more (almost completely withered)) | effect on lambsquarters (O) (lambsquarters [7]): 5 (Herbicidal rate of 90% or more (almost completely withered)) | effect on persian speedwell (R) (persian speedwell [8]): 5 (Herbicidal rate of 90% or more (almost completely withered))

Cc1nn(C)c(=O)c(-c2c(-c3ccc(C#N)cc3)sc3ccc(Cl)cc23)c1O [2-112]
Herbicidal effect on B: Japanese bulrush (grade 0-5) (Japanese bulrush): 2 (Herbicidal rate of 20% or more and less than 40%) | herbicidal effect rating, A: late watergrass (late watergrass): 3 (Herbicidal rate of 40% or more and less than 70%) | herbicidal effect rating, C: oval-leafed pondweed (oval-leafed pondweed): 0 (Herbicidal rate of 5% or less (almost no effect)) | herbicidal effect on D: Chinese sprangletop (Chinese sprangletop; [9]): 4 (Herbicidal rate of 70% or more and less than 90%) | F: southern crabgrass, herbicidal effect rating (southern crabgrass; [9]): 3 (Herbicidal rate of 40% or more and less than 70%) | I: wild oat, herbicidal effect rating (wild oat [1]; [9]): 0 (Herbicidal rate of 5% or less (almost no effect)) | J: blackgrass, herbicidal effect rating (blackgrass; [9]): 3 (Herbicidal rate of 40% or more and less than 70%) | K: Italian ryegrass, herbicidal effect rating (Italian ryegrass; [9]): 5 (Herbicidal rate of 90% or more (almost completely withered)) | L: windgrass, herbicidal effect rating (windgrass [2]; [9]): 5 (Herbicidal rate of 90% or more (almost completely withered)) | O: lambsquarters, herbicidal effect rating (lambsquarters [3]; [9]): 5 (Herbicidal rate of 90% or more (almost completely withered)) | R: persian speedwell, herbicidal effect rating (persian speedwell [4]; [9]): 5 (Herbicidal rate of 90% or more (almost completely withered)) | herbicidal effect on H: barnyard grass (barnyard grass; [10]): 4 (Herbicidal rate of 70% or more and less than 90%) | herbicidal effect on I: wild oat (wild oat [5]; [10]): 5 (Herbicidal rate of 90% or more (almost completely withered)) | herbicidal effect on L: windgrass (windgrass [6]; [10]): 5 (Herbicidal rate of 90% or more (almost completely withered)) | herbicidal effect on M: velvetleaf (velvetleaf; [10]): 4 (Herbicidal rate of 70% or more and less than 90%) | herbicidal effect on O: lambsquarters (lambsquarters [7]; [10]): 4 (Herbicidal rate of 70% or more and less than 90%) | herbicidal effect on R: persian speedwell (persian speedwell [8]; [10]): 5 (Herbicidal rate of 90% or more (almost completely withered))
